Measured values published in patent EP0108854A1, “Drug for stimulating hepatic cell homeostasis and for restoring the functional capacity of the hepatocytes” (ARCONTHORN LIMITED, priority 1982, dated 1984).

Legend:
[1] = tested on: liver damage in rats induced by allyl alcohol; assay: Activity against liver damage in rats induced by allyl alcohol; type: in vivo
Procedure: Experiments were carried out on the activity of the drug of this invention on liver damage in rats induced by allyl alcohol. This damage was evaluated by means of the weight of the liver, the quantity of lipids in the tissue itself and tHe excretion of BSP in the bile, as well as the changes in the GOT, GPT and the alkaline phosphatase levels in the blood.
The respective administrations to the rats were carried out intraperitoneally for 4 days. From the data in Table III it is seen that the weight of the rats'livers increased from […] in rats poisoned with allyl alcohol while the increase was only up to 5.30 mg in rats fed intraperitoneally with allyl alcohol and aminoethanethiosulphonic acid (drug of the invention). When allyl alcohol and the drug known by the name Thiola (100mg/^kg/day) was administered to the rats the liver weight increased to about 5.85 mg.

rats fed with Nath diet [2] = assay: Nath diet experiments in the same manner, comparison with other drugs at present in use (25th, 35th, 45th day); type: in vivo; conditions: for increase in cholesteraemia: aminoethanethiosulphonic acid 100 mg/kg, phosphorylcholine dose not stated; for increase in triglyceridemia: Nath diet alone 100%
Procedure: Experiments were carried out in the same manner as explained above with other drugs at present in use and, more particularly, phosphorylcholine (2 doses/25 and 50 mg/kg), sillimarine (Legalon, 70 mg/kg), S-adenosyl-1-methionine (Samyr) 25 mg/kg.
In rats fed solely with the Nath diet, the increase is, however, 100%. Among the control drugs, only phosphorylcholine (50 mg/kg) achieves a slight reduction (-20%) relative to the increase observed at the end of the period with the atherogenic diet. • - as regards the cholesteraemia the protective action shown by the drug of the invention was significant. Indeed, in rats fed with the drug phosphorylcholine,a 300% increase was found after 25 days and 320% and 410% increases respectively were found on the 35th and 45th days of feeding while in rats fed with aminoethanethiosulphonic acid (100mg/kq) the increase in cholesteraemia was only 35% on the 25th and on the 35th days. On the 45th day the increase was 50%.

[3] = tested on: WISTAR RATS KEPT ON A MORRIS DIET; assay: Protection in Wistar rats kept on a Morris diet for 45 days; type: in vivo; conditions: Morris diet 45 days; (XX) 100 mg/kg, phosphorylcholine 50 mg/kg
Procedure: (§1) Table IV below gives data relative to the protection offered by the administration of aminoethanethiosulphonic acid (100 mg/kg/day) and a control drug (phosphoryl- , choline, 50 mg/kg/day) to groups of Wistar rats subjected to two different atherogenic diets, specifically the Morris diet and the Handler diet, for 45 days. The data, in general, substantially repeated those observed in experiments carried out on aminals subjected to the Nath diet.

[4] = tested on: WISTAR RATS ON A HANDLER DIET; assay: Protection in Wistar rats on a Handler diet for 45 days; type: in vivo; conditions: Handler diet 45 days; (XX) 100 mg/kg, phosphorylcholine 50 mg/kg
Procedure: as §1

Solubility in water = type: physicochemical
[5] = Stability in the solid state; type: physicochemical; conditions: even at 50°C for very long periods of time
rats fed with Nath diet [6] = assay: Antidyslipaemic effect in rats fed with Nath diet for 45 days (evaluations on 28th and 45th day); type: in vivo, female Wistar rats; conditions: for blood triglyceride level: 28th day of treatment, aminoethanethiosulphonic acid dose printed as 10 mg/kg/day, tiadenol 100 mg/kg/day (Group C); for increase in pyruvic transaminase (GPT) level compared with the controls: Nath diet alone 60%; for increase in glutamic oxaloacetic transaminase (GOT) level compared with the controls: Nath diet alone 109%
Procedure: The aminoethanethiosulphonic acid, which constitutes the drug of this invention was tested experimentally on female Wistar rats to establish its antidyslipaemic effect in comparison with drugs already in use therapeutically. For this experiment, the rats were divided into five groups of five rats which were fed in accordance with the following scheme: • GROUP "A": rats fed with a normal diet of nutritive pellets having the following composition: Composition of the nutritive pellets: [formula] with the addition of vitamins (A-D3-E-C), NaCl, CaCO3 and spring water at will. • GROUP "B": rats fed with Nath diet (Nath et al. 1959 - Journal of Nutrition, 67-289). • GROUP "C": rats fed with a Nath diet incorporating the drug tiadenol (1.25 q/kg)such that the rats could take up the drug in quantities of 100 mg/kg/day. • GROUP D: rats fed with a Nath diet incorporating the drug of the invention (1.25 g/kg of aminoethanethiosulphonic acid) such that the rats could take up the drug in quantities of 100 mg/kg/day. • GROUP"E":rats fed with a Nath diet incorporating the drug of the invention (aminoethanethiosulphonic acid) in quantities of 2.5 g/kg, so that the rats could take up the drug in quantities of 200 mg/kg/day.
The experiments were carried out over a period of 45 days. On the 28th day of treatment, the cholesteraemia and the blood triglyceride level of the rats were measured.
On the 45th day from the start of the treatment, however a whole series of systematic weight and hematochemical evaluations was carried out in accordance with the following scheme: • - liver weight/body weight percentage ratio • - ratio of the weight of the liver when removed/dry weight of the liver • - cholesteraemia according to the Watson method (1) • - blood triglyceride level according to the Bermryer method (2) • - blood alkaline phosphatase level (3,4) • - glutamic oxaloacetic transaminase level according to the Karmen method (5,6) • - glutamic pyruvic transaminase level according to the Wroblewski and La-Due method (7) • - total lipid content of the liver by extraction with ether, separation by decantation, evaporation of the ether part in an oven and weighing of the residue. • 1. - WATSON D. (1960) Clin. Chim. Acta, 5 : 637 • 2. - BERGMRYER H.U. (1975) Z. Klin. Chem. and Klin. Biochem.13 : 507 • 3; - Anon. (1970) Z.Klin. Chem. and Klin.Biochem 13 : 507. • 4. - Anon.(1972) Z.Klin. Chem. and Klin. Biochem 13 : 507. • 5. - KARMEN A. and coll. (1955) J. Clin. Invest. 34 : 126. • 6. - KARMEN A. (1955) J. Clin Invest. 34 : 131 • 7. - WROBLEWSKI F. and coll. (1956) Proc. Soc. exp. Biol. Med. 91 : 569.
Macroscopic and microscopic, anatomical-pathological examinations of the liver and of the thoracic aorta were carried out on all the animals, the microscopic examinations being carried out by means of preservation in formalin,enclosure and colouration with hematoxylin- eosin and selective dyes for the lipids according to the current methods.

rats fed with Nath diet [7] = assay: as above; type: in vivo, female Wistar rats; conditions: 28th day of treatment, tiadenol 100 mg/kg/day (Group C)
[8] = Toxicology, administration kept up for 180 days; type: in vivo; conditions: daily dose of 200 mg/kg of body weight
[9] = 100 mg/kg/day i.p. for 4 days, allyl alcohol 2 ml/kg p.o. 30 minutes after last administration
[10] = 100 mg/kg/day i.p. for 4 days, allyl alcohol 2 ml/kg p.o. 30 minutes after last administration, listed as (XX)

Row | Compound | LIVER Weight [1, 9] | SERUM BSP [1, 9] [µg/mL] | SERUM GOT [1, 9] [mU/ml] | SERUM GPT [1, 9] [mU/ml] | BETALIPOPROTEINS, protection [3] [%] | CHOLESTERAEMIA, protection [3] [%] | HEPATIC LIPIDS, protection [3] [%] | TOTAL BLOOD LIPIDS, protection [3] [%] | CHOLESTERAEMIA, protection [4] [%] | HEPATIC LIPIDS, protection [4] [%] | TOTAL BLOOD LIPIDS, protection [4] [%] | TRIGLYCERIDEMIA, protection [4] [%] | increase in cholesteraemia (rats fed with Nath diet [2]; 25th day) [%] | increase in cholesteraemia (rats fed with Nath diet [2]; 35th day) [%] | increase in cholesteraemia (rats fed with Nath diet [2]; 45th day) [%] | blood triglyceride level (rats fed with Nath diet [6]) [mg%] | increase in pyruvic transaminase (GPT) level compared with the controls (rats fed with Nath diet [6]; 45th day, 100 mg/kg/day) [%] | increase in glutamic oxaloacetic transaminase (GOT) level compared with the controls (rats fed with Nath diet [6]; 45th day, 100 mg/kg/day) [%] | blood cholesterol level (rats fed with Nath diet [7]) [mg%] | other results
1 | CC(S)C(=O)NCC(=O)O (centres unmarked) [Thiola] | about 5.85 mg | 21.78 ± 2.99 | 388.0 ± 25.8 | 99.4 ± 12.2 | – | – | – | – | – | – | – | – | – | – | – | – | – | – | – | LIVER Lipids Tot. [1, 9]: 5.23 ± 0.30 mg%; SERUM ALKALINE PHOSPHATASE [1, 9]: 3.13 ± 0.23 U/ml; protection against the increase in the total lipid content of the liver ([1]; after allyl alcohol, 100 mg/kg/day i.p.): did not give any protection
2 | C[S+](CC[C@H](N)C(=O)O)C[C@H]1O[C@@H](n2cnc3c(N)ncnc32)[C@H](O)[C@@H]1O (some centres unmarked) [Samyr, S-adenosyl-1-methionine, reference compound] | – | – | – | – | – | – | – | – | – | – | – | – | – | – | – | – | – | – | – | changes in the transaminase levels (GOT and GPT) (rats fed with Nath diet [2]; 35th day of administration): a certain favourable action; protective action as regards the cholesteraemia (rats fed with Nath diet [2]; Legalon 70 mg/kg, Samyr 25 mg/kg, noticeably less than aminoethanethiosulphonic acid): a certain protective action; protection from the point of view of lipid infiltration (rats fed with Nath diet [2]; control drugs compared with aminoethanethiosulphonic acid): protection was found but was only half that given by the aminoethanethiosulphonic acid
3 | C[N+](C)(C)CCOP(=O)(O)O [phosphorylcholine, reference compound] | – | – | – | – | 8 | 12 | 12 | 5 | 15 | 23 | 10 | 7 | 300 | 320 | 410 | – | – | – | – | reduction in triglyceridemia relative to the increase observed at the end of the period with the atherogenic diet (rats fed with Nath diet [2]; 50 mg/kg): -20%
4 | NCCS(=O)(O)=S [aminoethanethiosulphonic acid] | 5.30 | 12.31 ± 0.91 | 172.0 ± 10.2 | 25.9 ± 2.5 | 45 | 60 | 50 | 40 | 35 | 50 | 33 | 30 | 35 | 35 | 50 | 31 | 90 | 23 | 129 | solubility in water (Solubility in water): soluble in water; stability in the solid state [5]: considerable stability in the solid state; increase in the hepatic lipid infiltration compared with the control animals (rats fed with Nath diet [6]; 45th day, 100 mg/kg/day, Nath diet alone 235%): 117%; increase in the quantity of lipids in the tissue (hepatic parenchyma) (rats fed with Nath diet [2]; 25th day, 100 mg/kg, Nath diet alone + 155): 50%; increase in the quantity of lipids in the tissue (hepatic parenchyma) (rats fed with Nath diet [2]; 25th day, 200 mg/kg, Nath diet alone + 155): 95%; increase in triglyceridemia (rats fed with Nath diet [2]; 35th day, 100 mg/kg/day): 15%; increase in triglyceridemia (rats fed with Nath diet [2]; 35th day, 200 mg/kg/day): 40%; increase in the quantity of lipids in the tissue (hepatic parenchyma) (rats fed with Nath diet [2]; 45th day, 100 mg/kg, Nath diet alone + 225): 98%; increase in the quantity of lipids in the tissue (hepatic parenchyma) (rats fed with Nath diet [2]; 45th day, 200 mg/kg, Nath diet alone + 225): 110%; mortality [8]: did not result in any increase in mortality; weight curve [8]: nor any variation in the weight curve; LIVER Lipids Tot. [1, 10]: 5.08 ± 0.39 mg%; LIVER Weight [1, 10]: 5.30 ± 0.05; LIVER Lipids Tot. ([1]; 100 mg/kg/day i.p. for 4 days, allyl alcohol 2 ml/kg p.o. 30 minutes after last administration, listed as drug of the invention): 5.08 mg%
5 | OCCSCCCCCCCCCCSCCO [tiadenol, reference compound] | – | – | – | – | – | – | – | – | – | – | – | – | – | – | – | 44 | 100 | 32 | 155 | –
